Results as given in ChEMBL document CHEMBL3407333, “Synthesis and biological evaluation of second-generation tropanol-based androgen receptor modulators” (J Med Chem, 2015).

Experiments:
[1] = target: T1, Androgen receptor (Homo sapiens, UniProt P10275); experiment: Antagonist activity against pSG5-tagged human androgen receptor expressed in COS1 cells assessed as reduction in receptor-mediated transcriptional activity by AR-regulated rat probasin promoter fragment driven firefly luciferase reporter assay; assay type: cell-based, COS-1
T1 sequence (P10275 whole entry): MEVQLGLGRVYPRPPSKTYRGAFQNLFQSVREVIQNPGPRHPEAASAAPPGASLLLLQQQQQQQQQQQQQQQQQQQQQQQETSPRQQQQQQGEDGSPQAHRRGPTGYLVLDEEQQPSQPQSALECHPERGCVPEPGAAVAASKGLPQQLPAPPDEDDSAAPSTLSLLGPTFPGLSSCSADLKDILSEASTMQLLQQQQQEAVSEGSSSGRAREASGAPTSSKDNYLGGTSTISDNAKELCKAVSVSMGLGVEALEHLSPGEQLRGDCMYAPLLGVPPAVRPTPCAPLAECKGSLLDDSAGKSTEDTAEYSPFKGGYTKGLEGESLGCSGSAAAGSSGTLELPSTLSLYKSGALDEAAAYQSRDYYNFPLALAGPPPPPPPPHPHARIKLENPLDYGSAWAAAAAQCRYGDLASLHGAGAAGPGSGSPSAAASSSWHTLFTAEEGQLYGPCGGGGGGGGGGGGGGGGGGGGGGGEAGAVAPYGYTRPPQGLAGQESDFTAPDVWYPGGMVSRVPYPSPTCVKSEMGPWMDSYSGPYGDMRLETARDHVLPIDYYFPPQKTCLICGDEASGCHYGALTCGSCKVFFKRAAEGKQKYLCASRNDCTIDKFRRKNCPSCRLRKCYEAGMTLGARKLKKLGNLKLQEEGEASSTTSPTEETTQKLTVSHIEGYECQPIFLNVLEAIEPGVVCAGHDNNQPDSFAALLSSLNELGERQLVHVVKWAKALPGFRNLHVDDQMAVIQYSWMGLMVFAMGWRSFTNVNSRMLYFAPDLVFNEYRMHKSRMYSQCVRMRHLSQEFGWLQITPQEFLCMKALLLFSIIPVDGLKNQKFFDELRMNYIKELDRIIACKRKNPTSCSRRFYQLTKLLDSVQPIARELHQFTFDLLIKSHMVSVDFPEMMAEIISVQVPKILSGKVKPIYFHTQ

[2] = target: T1, Androgen receptor; experiment: Displacement of [3H]R1881 from pSG5-tagged human androgen receptor expressed in COS1 cells assessed as relative binding inhibition; assay type: cell-based, COS-1

SMILES | IC50 [1] | IC50 [2]
N#Cc1ccc(N2[C@@H]3CC[C@H]2C[C@@H](O)C3)cc1Cl | 31.7 nM | 31.7 nM
N#Cc1ccc(N2C3CCC2CC(=O)C3)cc1C(F)(F)F | 66 nM | 66 nM
Cc1c(N2C3CCC2CC(C)(O)C3)ccc(C#N)c1Cl (stereo unspecified) | 2.11 nM | 2.11 nM
N#Cc1ccc(N2[C@H]3CC[C@H]2CC(O)C3)cc1C(F)(F)F (relative stereo) | 39.8 nM | 39.8 nM
CC1(O)C[C@@H]2CC[C@@H](C1)N2c1ccc(C#N)c(C(F)(F)F)c1 (relative stereo) | 29.3 nM | 29.3 nM
N#Cc1ccc(N2[C@H]3CC[C@H]2CC(NCc2ccccc2)C3)cc1C(F)(F)F (relative stereo) | 233 nM | 233 nM
CS(=O)(=O)NC1C[C@@H]2CC[C@@H](C1)N2c1ccc(C#N)c(C(F)(F)F)c1 (relative stereo) | 2650 nM | 2650 nM
CCS(=O)(=O)NC1C[C@@H]2CC[C@@H](C1)N2c1ccc(C#N)c(C(F)(F)F)c1 (relative stereo) | 2040 nM | 2040 nM
